# In ChEMBL document CHEMBL1201862, “PubChem BioAssay data set” (2004):
# Activity calls are given as the source filed them.
# Experiments:
# [1] = biological target: Dual specificity protein kinase CLK1 (Homo sapiens, UniProt P49759); test: inhibition of human CLK1 activity – biochemical, cherry-picked samples, selectivity assay for Dyrk1A inhibitor project, dose response (AID 588811)
# CAAX prenyl protease 1 = CAAX prenyl protease 1 (Saccharomyces cerevisiae S288c, UniProt P47154); test: yeast CAAX protease Ste24 inhibition – biochemical, S. cerevisiae, plate reader, cherry-pick, dose response (AID 488815)
# [2] = HEK-293T viability loss after treatment – luminescence, T-cell screen hits, cytotoxicity control for TCR NF-kB inhibitor project, dose response (AID 489026); type: functional, cell-based;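 further: cells exposed to compound about 14 hours before the viability readout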
# [3] = biological target: T1, Polyadenylate-binding protein 1 (Homo sapiens, UniProt P11940); test: MLLE binding blockers, Cy5 peptide tracer – biochemical, fluorescence polarization, Cy5-PAM2 peptide, secondary, miRNA deadenylation inhibitor project, dose response (AID 602260); type: functional; settings: read-out: IC50_Mean
# BJ [4] = test: BJ-TERT fibroblast viability loss – cell-based, RAS-independent, luminescence, dose response (AID 1933); type: functional; settings: Homo sapiens
# [5] = Luminescence-based cell-based high throughput dose response assay to identify activators of the DAF-12 from the parasite S. stercoralis (ssDAF-12).; type: functional
# [6] = cytotoxicity toward MDA-MB-231 breast cancer cells – cell-based, CellTiter-Glo luminescence, cherry-pick, cytotoxicity control for RAD54 inhibitor project, dose response (AID 651692); type: functional
# [7] = DRD fibroblast viability loss – cell-based, non-viral oncogenic, luminescence, dose response (AID 1934); type: functional; settings: Homo sapiens
# [8] = biological target: T1, Polyadenylate-binding protein 1; test: MLLE domain peptide-binding blockers, IC50 – biochemical, fluorescence polarization, FITC-PAM2 peptide, dose response (AID 602259); type: functional; settings: read-out: IC50_Mean
# Paired box protein Pax-8 = Paired box protein Pax-8 (Homo sapiens, UniProt Q06710); test: PAX8 transcriptional activity inhibition in RMG-I – RMG-I cells, luciferase, cherry-pick, dose response (AID 687027); type: functional, cell-based;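 further: luciferase reporter driven by Pax8 target thyroperoxidase promoter measured by SteadyGlo luminescence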
# BJ [9] = test: BJ-TERT-LT-ST fibroblast viability loss – cell-based, RAS-independent, luminescence, dose response (AID 1935); type: functional; settings: Homo sapiens;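 further: BJ fibroblasts immortalized with TERT plus LT and ST oncogenes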
# BJ [10] = test: cells; type: functional, cell-based; settings: Homo sapiens
# [11] = biological target: T2, DNA repair and recombination protein RAD54-like (Homo sapiens, UniProt Q92698); test: RAD54 Holliday junction migration blockers – biochemical, fluorescence, cherry-picked samples, dose series, confirmation (AID 651657); type: functional
# T2 sequence (Q92698 whole entry): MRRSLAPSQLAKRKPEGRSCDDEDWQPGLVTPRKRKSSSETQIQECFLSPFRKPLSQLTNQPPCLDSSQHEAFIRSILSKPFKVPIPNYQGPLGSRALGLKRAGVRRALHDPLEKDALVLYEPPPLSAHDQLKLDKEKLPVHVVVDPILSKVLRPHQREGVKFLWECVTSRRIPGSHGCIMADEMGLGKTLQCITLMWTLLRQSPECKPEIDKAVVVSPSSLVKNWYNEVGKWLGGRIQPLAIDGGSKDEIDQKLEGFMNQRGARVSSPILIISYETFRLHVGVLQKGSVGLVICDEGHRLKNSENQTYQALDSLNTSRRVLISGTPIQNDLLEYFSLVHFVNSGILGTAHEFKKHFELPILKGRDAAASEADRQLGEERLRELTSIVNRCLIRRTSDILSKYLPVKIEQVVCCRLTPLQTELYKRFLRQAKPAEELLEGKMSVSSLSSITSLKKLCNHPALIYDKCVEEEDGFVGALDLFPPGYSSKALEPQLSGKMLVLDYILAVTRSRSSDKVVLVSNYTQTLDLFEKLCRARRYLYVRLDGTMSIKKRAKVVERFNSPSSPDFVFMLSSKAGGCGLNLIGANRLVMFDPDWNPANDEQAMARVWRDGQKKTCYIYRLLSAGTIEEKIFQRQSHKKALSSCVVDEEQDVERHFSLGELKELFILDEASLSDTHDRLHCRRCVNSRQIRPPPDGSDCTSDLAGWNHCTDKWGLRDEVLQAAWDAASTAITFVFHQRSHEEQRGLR
# BJ [12] = test: growth inhibition of engineered Ras-driven BJ cells – cell-based, alamar blue fluorescence, cherrypicked samples, dose response (AID 2631); type: functional; settings: Homo sapiens;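 further: confirmatory dose-response assay in RAS-dependent BJ fibroblasts engineered with TERT, LT and ST, with cytotoxicity read by fluorescence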
# [13] = biological target: Sphingosine 1-phosphate receptor 4 (Homo sapiens, UniProt O95977); test: Fluorescence dose response cell-based high throughput screening assay for agonists of the Sphingosine 1-Phosphate Receptor 4 (S1P4). [Related pubchem assays: 1509 (Primary screen.), 1523 (Confirmation screen in triplicates.)]; type: functional
# [14] = biological target: T3, DNA repair protein RAD52 homolog (Homo sapiens, UniProt P43351); type: functional, biochemical
# T3 sequence (P43351 whole entry): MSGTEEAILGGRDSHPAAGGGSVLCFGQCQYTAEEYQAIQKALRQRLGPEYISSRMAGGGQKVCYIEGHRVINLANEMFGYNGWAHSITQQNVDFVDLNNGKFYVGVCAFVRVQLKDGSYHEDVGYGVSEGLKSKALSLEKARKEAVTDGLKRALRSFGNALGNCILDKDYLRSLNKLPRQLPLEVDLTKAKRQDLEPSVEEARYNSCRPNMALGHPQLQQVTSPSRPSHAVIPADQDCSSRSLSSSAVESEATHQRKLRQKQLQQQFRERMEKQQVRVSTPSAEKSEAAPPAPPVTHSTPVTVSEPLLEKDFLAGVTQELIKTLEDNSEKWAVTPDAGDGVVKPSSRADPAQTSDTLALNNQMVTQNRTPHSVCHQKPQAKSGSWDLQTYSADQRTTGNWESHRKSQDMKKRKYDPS
# [15] = biological target: Sphingosine 1-phosphate receptor 1 (Homo sapiens, UniProt P21453); test: Fluorescence-based counterscreen assay for S1P4 agonists: Cell-based dose response high throughput screening assay to identify agonists of the Sphingosine 1-Phosphate Receptor 1 (S1P1). [Related pubchem assays (depositor defined):AID1509, AID1523, AID1801, AID463107, AID463118, AID463119, AID463122, AID463123, AID463129, AID463225, AID504400, AID504460]; type: functional
# [16] = biological target: Induced myeloid leukemia cell differentiation protein Mcl-1 (Homo sapiens, UniProt Q07820); type: functional
# [17] = Luminescence Cell-Based Dose Retest to Confirm Inhibitors of Cancer Stem Cells. [Related pubchem assays (depositor defined):AID2717, AID2721]; type: functional; settings: Homo sapiens
# [18] = biological target: T4, Bifunctional protein GlmU (Mycobacterium tuberculosis, UniProt P9WMN3); test: Inhibitors of Mycobacterial Glucosamine-1-phosphate acetyl transferase (GlmU). Secondary screen.; parameters: species or system Mycobacterium tuberculosis H37Rv
# T4 sequence (P9WMN3 whole entry): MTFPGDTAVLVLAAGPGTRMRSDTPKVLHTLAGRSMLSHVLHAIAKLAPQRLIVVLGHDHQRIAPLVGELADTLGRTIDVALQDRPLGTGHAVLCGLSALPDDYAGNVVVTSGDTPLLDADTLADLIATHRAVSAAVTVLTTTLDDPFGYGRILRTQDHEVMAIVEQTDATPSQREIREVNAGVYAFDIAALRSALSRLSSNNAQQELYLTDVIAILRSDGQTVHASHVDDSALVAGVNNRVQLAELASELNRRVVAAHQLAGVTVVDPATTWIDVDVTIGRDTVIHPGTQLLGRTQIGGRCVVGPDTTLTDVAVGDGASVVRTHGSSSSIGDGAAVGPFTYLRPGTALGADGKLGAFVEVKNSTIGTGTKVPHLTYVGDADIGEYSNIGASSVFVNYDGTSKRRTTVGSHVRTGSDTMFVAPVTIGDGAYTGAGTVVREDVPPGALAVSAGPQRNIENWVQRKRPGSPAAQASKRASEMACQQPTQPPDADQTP
# [19] = viability loss of HMLE_sh_eGFP cells – cell-based, luminescence, counter-screen for HMLE_sh_ECad selective toxicity project, dose response (AID 463074); type: functional, Homo sapiens;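 further: HMLE human mammary epithelial cells expressing control shRNA against eGFP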
# [20] = Trypanosoma cruzi growth suppression in host cells – NIH3T3 host cells, beta-gal luminescence, confirmation (AID 2044); type: functional, cell-based;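 further: intracellular parasites grown in NIH/3T3 mouse fibroblasts as host cells; luminescent beta-galactosidase reporter signal from transgenic T. cruzi replicating inside host cells; inhibitors lower the luminescence signal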
# [21] = NIH3T3 cell viability loss – ATP luminescence, mouse fibroblasts, counter-screen, dose response (AID 2010); type: functional, cell-based;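 further: cells exposed to compound for about 90 hours before reading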
# Streptococcus = test: GAS UMAA2166 growth inhibition – luminescence, BacTiterGlo, counter-screen for streptokinase expression inhibitor project, dose response (AID 1915); type: functional, organism-based;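 further: potency for reduction of bacterial viability or growth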
# [22] = test system: Streptococcus sp. 'group A'; test: Streptococcus pyogenes SK(-)GAS viability under kanamycin – luminescence, BacTiterGlo, confirmation, counter-screen for streptokinase expression inhibitor project, dose response (AID 1900); type: functional, organism-based
# Estrogen receptor beta [23] = biological target: T5, Estrogen receptor beta (Homo sapiens, UniProt Q92731);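 further: recombinant ER-beta bound to coactivator SRC1 peptide in presence of estradiol agonist; inhibitors block coactivator peptide binding and lower the FRET signal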
# Estrogen receptor = biological target: T6, Estrogen receptor (Homo sapiens, UniProt P03372);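 further: potency for inhibiting coactivator peptide recruitment to the receptor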
# T6 sequence (P03372 whole entry): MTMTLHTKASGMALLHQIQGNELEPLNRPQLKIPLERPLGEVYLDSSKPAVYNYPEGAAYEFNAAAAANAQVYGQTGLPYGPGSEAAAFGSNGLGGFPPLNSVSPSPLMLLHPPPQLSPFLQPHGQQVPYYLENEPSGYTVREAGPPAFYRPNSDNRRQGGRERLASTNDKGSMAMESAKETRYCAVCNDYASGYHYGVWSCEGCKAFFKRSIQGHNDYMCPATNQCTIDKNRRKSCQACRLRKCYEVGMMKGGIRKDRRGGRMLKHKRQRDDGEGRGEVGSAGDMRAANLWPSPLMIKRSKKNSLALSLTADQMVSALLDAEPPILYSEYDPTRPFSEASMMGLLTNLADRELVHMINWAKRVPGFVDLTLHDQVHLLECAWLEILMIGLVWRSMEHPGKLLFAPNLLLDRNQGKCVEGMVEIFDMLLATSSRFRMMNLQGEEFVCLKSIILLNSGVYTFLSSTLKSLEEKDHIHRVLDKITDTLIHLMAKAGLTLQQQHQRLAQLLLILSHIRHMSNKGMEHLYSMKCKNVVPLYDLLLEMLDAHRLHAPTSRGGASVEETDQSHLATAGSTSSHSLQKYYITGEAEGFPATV
# [24] = biological target: Luciferin 4-monooxygenase (Photinus pyralis, UniProt P08659); test: inhibition of purified Photinus pyralis luciferase – biochemical, luminescence, dose response (AID 1891)
# [25] = Luminescence Cell-Based Dose Confirmation HTS to Identify Inhibitors of Platelet Dense Granule Release. [Related pubchem assays: 1663 (Primary HTS), 1678 (Summary of Project)]; type: functional
# Streptokinase A = biological target: T7, Streptokinase A (Streptococcus pyogenes serotype M1, UniProt P10520); test: viability-normalized secreted streptokinase activity reduction – plasminogen activation absorbance, OD405, dose response (AID 1914); type: functional, Streptococcus pyogenes M1 GAS;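 further: secreted streptokinase activity via plasminogen activation per viability signal from cell pellet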
# T7 sequence (P10520 whole entry): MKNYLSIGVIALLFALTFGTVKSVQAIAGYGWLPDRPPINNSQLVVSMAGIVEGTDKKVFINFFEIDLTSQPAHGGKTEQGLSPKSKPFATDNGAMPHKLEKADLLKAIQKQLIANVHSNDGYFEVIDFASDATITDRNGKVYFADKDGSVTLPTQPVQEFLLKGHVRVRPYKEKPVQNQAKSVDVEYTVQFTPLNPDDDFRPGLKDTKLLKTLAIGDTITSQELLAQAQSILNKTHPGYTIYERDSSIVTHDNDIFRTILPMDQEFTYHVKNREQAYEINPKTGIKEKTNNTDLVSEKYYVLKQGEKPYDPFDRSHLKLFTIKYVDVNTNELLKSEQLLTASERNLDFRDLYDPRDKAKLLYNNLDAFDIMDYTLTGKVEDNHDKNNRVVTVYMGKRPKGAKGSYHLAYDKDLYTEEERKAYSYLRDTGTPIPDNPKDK
# Estrogen receptor beta [26] = biological target: T5, Estrogen receptor beta; test: blockers of SRC-3 recruitment to ERβ – biochemical, ELISA, streptavidin-HRP readout, orthogonal assay, confirmation (AID 1060)
# [27] = biological target: Sphingosine 1-phosphate receptor 2 (Homo sapiens, UniProt O95136); test: Dose Response Cell Based Assay for Agonists of the S1P2 Receptor. [Related pubchem assays: 729, 736, 843 ]; type: functional
# Chain of Sphingosine 1-phosphate receptor 2 (O95136 whole entry): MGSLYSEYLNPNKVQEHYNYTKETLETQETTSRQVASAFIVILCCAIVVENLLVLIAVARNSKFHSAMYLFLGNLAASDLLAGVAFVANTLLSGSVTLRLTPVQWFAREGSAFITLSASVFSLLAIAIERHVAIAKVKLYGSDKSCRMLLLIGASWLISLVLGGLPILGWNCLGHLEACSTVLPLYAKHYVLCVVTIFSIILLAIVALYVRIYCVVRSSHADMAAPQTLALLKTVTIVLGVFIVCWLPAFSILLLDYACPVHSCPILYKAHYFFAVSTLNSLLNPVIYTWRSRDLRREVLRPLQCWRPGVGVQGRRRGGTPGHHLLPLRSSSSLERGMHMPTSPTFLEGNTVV
# T1 sequence (P11940 whole entry): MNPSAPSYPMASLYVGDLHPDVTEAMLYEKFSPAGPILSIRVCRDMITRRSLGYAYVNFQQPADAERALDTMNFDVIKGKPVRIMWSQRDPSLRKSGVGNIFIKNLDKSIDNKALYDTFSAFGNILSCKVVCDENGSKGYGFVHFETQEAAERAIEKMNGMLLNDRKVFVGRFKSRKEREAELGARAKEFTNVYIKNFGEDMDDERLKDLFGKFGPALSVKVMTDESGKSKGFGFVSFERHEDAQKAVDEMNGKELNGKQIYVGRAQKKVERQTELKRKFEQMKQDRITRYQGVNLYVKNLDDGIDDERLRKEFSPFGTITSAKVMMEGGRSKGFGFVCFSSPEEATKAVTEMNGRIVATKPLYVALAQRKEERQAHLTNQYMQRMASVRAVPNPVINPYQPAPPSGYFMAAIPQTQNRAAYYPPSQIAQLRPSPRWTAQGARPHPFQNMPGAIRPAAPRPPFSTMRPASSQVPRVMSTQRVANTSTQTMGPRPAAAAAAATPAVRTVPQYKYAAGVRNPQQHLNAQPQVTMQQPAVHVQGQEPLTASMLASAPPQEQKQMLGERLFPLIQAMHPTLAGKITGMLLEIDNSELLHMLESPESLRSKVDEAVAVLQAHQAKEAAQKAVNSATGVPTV
# Chain of Sphingosine 1-phosphate receptor 1 (P21453 whole entry): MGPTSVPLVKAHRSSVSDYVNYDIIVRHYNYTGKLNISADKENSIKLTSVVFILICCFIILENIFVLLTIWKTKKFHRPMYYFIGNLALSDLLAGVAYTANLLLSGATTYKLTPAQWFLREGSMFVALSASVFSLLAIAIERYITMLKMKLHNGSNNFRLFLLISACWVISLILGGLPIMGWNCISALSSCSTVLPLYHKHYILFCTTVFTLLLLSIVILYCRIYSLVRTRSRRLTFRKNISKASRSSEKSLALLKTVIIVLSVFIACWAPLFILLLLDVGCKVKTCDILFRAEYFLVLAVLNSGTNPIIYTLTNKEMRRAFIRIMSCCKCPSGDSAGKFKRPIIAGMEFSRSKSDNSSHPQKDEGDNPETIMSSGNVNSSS
# T5 sequence (Q92731 whole entry): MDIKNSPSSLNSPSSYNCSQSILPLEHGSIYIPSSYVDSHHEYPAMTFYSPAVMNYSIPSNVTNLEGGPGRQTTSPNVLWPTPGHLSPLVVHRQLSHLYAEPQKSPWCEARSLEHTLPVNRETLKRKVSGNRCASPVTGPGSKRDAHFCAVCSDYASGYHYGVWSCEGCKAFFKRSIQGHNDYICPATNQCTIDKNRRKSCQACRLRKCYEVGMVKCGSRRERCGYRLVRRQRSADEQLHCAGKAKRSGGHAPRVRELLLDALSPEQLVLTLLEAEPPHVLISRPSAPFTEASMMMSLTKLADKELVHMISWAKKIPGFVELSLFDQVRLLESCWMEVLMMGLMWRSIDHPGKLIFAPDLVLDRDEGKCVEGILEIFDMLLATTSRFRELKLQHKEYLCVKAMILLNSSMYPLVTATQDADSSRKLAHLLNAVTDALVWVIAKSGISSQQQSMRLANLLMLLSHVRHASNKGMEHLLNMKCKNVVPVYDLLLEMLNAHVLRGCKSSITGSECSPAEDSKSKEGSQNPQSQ
# Chain of Sphingosine 1-phosphate receptor 4 (O95977 whole entry): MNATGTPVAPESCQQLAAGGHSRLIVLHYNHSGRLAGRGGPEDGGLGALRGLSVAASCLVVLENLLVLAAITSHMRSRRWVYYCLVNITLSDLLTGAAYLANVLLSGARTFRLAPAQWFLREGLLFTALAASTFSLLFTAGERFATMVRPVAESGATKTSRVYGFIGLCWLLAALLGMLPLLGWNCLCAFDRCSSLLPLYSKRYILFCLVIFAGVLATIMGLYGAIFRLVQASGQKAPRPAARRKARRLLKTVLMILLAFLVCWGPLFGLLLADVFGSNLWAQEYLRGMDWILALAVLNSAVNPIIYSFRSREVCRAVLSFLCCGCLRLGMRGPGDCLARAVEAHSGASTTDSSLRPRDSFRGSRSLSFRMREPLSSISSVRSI
# Chain of Dual specificity protein kinase CLK1 (P49759 whole entry): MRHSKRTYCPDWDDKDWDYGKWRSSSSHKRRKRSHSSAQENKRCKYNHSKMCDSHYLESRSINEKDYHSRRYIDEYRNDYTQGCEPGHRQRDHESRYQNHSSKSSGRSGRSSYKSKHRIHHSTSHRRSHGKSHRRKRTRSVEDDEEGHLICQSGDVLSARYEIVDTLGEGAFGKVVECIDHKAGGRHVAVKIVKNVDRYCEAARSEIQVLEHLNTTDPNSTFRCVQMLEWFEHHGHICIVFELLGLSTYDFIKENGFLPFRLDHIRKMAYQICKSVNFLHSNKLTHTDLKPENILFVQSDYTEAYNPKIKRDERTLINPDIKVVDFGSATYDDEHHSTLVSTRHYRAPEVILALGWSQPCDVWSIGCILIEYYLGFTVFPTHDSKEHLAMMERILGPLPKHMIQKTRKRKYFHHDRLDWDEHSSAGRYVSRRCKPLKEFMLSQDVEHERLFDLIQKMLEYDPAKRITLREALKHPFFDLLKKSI
# Chain of Induced myeloid leukemia cell differentiation protein Mcl-1 (Q07820 whole entry): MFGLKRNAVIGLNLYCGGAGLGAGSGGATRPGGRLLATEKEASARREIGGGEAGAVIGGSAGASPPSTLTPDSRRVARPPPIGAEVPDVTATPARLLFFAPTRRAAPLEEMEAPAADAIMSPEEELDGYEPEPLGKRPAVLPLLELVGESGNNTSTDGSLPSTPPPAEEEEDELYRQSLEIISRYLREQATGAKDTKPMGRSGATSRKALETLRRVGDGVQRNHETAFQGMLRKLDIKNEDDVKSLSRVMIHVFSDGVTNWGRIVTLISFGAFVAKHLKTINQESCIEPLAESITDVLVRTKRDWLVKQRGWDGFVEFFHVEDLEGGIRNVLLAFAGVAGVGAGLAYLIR
# Chain of Luciferin 4-monooxygenase (P08659 whole entry): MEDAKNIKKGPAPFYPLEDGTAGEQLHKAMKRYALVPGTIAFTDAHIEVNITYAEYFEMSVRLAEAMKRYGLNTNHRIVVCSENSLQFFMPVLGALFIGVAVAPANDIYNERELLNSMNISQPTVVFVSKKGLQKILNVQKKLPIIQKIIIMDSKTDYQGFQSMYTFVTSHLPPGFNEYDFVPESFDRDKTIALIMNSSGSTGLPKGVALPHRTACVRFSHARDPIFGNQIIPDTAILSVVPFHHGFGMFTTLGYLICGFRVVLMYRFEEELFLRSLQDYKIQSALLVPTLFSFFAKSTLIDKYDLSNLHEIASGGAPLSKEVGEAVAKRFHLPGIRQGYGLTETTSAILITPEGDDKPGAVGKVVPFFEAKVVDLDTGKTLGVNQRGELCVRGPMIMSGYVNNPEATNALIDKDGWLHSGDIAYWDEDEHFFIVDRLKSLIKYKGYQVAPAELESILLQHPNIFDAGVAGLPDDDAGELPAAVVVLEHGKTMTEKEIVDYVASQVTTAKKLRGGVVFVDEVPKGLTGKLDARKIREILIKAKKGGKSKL
# Chain of CAAX prenyl protease 1 (P47154 whole entry): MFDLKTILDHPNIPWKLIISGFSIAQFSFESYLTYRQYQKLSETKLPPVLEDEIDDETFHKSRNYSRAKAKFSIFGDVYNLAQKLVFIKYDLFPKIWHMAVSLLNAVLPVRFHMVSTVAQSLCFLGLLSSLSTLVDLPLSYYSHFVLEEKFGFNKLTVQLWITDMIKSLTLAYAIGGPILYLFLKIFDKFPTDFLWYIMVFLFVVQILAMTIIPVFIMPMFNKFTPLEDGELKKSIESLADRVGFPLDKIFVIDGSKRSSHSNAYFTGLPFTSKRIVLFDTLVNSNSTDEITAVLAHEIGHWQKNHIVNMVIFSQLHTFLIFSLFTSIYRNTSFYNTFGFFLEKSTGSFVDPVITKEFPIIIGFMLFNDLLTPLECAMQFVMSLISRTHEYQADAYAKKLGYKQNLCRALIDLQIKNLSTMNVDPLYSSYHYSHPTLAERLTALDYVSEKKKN
# Chain of Paired box protein Pax-8 (Q06710 whole entry): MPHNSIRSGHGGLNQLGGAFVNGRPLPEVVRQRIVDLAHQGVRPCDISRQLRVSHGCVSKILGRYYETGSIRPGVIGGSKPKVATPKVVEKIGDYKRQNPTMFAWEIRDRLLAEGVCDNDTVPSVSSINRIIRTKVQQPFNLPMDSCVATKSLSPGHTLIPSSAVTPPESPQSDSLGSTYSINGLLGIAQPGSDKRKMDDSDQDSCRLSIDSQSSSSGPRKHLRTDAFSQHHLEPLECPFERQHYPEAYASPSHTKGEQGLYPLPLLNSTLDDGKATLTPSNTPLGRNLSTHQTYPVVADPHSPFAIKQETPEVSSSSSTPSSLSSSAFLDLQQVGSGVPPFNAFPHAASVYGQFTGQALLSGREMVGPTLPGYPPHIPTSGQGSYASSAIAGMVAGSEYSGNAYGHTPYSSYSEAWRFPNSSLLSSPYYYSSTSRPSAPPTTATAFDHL
structure (smiles),measurement,setting,value
Cc1csc(CN(C)c2ncnc3ccc(-c4ccc5c(c4)OCO5)cc23)n1,AC50,[1],2.23 µM (active)
CC1=CC2=NC(=O)CC(C)(C(=O)N(CC(=O)NC3CCCC3)Cc3ccccc3)N2C=C1 (stereo not drawn),AC50,CAAX prenyl protease 1,11.5 µM (active)
O=C1c2cccc3cc([N+](=O)[O-])cc(c23)C(=O)N1CCN1CCCC1 [PINAFIDE],IC50,[2],> 80 µM (inactive)
same,IC50,[3],> 66 µM (inactive)
same,EC50,BJ [4],5.47 µM (inconclusive)
same,IC50,[5],> 67.5 µM (inactive)
same,AC50,[6],16 µM (inactive)
same,EC50,[7],5.03 µM (inconclusive)
same,IC50,[8],44.7 µM (inactive)
same,AC50,Paired box protein Pax-8,0.87 µM (active)
same,EC50,BJ [9],> 150 µM (inconclusive)
same,EC50,BJ [10],9.59 µM (active)
same,AC50,[11],2.94 µM (active)
same,EC50,BJ [12],0.478 µM (active)
same,EC50,[13],> 5.53 µM (not active)
same,AC50,[14],8.44 µM (active)
same,EC50,[15],3.11 µM (active)
O=C1NN(c2cccc(F)c2)C(=O)/C1=C1\C(=O)Nc2ccccc21,IC50,[16],< 0.4 µM (active)
same,IC50,[3],> 66 µM (inactive)
same,IC50,[8],> 66 µM (inactive)
same,AC50,[17],4.9 µM (active)
same,IC50,[18],199 µM (active)
same,AC50,[19],43.3 µM (active)
COc1cc(-c2nc(-c3ccccc3)c(-c3cccs3)[nH]2)cc(OC)c1OC,EC50,[20],1.21 µM (active)
same,AC50,[17],50.3 µM (active)
same,EC50,[21],> 30 µM (not active)
same,AC50,[19],29.9 µM (active)
O=C(NCc1ccco1)c1cc2ccc(O)cc2oc1=O,EC50,Streptococcus,13.3 µM (active)
same,EC50,[22],7.99 µM (active)
same,IC50,Estrogen receptor beta [23],3.57 µM (active)
same,IC50,Estrogen receptor,14.3 µM (active)
same,EC50,[24],0.288 µM (active)
same,EC50,[25],1.82 µM (active)
same,EC50,Streptokinase A,> 150 µM (not active)
same,EC50,[13],1.84 µM (active)
same,EC50,[15],5.05 µM (active)
same,IC50,Estrogen receptor beta [26],> 50 µM (not active)
same,EC50,[27],3.28 µM (active)
